Twelve molecules from BindingDB's records for doi:10.1016/j.bmcl.2006.12.084 (Gsk, 2007) can be followed below.

Free fatty acid receptor 1, sequence (O14842 whole entry, the tested form may be a part): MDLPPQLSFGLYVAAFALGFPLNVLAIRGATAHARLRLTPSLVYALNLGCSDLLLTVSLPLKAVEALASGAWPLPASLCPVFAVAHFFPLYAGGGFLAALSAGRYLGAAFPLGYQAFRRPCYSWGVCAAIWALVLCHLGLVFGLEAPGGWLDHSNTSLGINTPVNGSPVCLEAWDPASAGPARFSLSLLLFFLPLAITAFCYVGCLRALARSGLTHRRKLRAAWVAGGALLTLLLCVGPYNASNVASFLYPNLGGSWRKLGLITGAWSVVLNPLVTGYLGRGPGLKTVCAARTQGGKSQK

The first assay addresses Free fatty acid receptor 1 (Homo sapiens, UniProt O14842). Description: 96-Well Adherent Reporter Cell Assay. The note with it: 22 °C. The procedure:
The reporter assay for the stable hGPR40-Gal4-Elk1/5xGal4-luc+-expressing CHO cells was first carried out in the serum-free medium in the presence of test ligand for 5h. The medium was then removed and replaced with 1:1 mixture of LucPlusTM (PerkinElmer Life Sciences) and Dulbecco phosphate buffered saline containing 1 mM CaCl2 and 1 mM MgCl2. Plates were incubated in the dark at room temperature for 10 min before luciferase activity was determined using a TopCountTM microplate scintillation counter (PerkinElmer Life Sciences) at a count time of 3 s/well.
Consider `CC(C(=O)O)c1ccc(NCc2ccc(-c3ccccc3)cc2)cc1` (configuration not stated) [2-(4-{[(4-phenylphenyl)methyl]amino}phenyl)propanoic acid], for which the EC50 is over 31.6 µM. On to `O=C(O)CCc1ccc(NCc2ccc(Cl)s2)cc1` [3-(4-{[(5-chlorothiophen-2-yl)methyl]amino}phenyl)propanoic acid], for which a half-maximal response (EC50) required 2 µM. On the same count and under the same terms, to `O=C(O)CCc1ccc(NCc2ccc(C(F)(F)F)cc2)cc1` [3-[4-({[4-(trifluoromethyl)phenyl]methyl}amino)phenyl]propanoic acid] belongs 2 µM. On the same count and under the same terms, to `O=C(O)CCc1ccc(NCc2cccnc2)cc1` [3-{4-[(pyridin-3-ylmethyl)amino]phenyl}propanoic acid] belongs over 31.6 µM; to `CN(C)Cc1ccc(CNc2ccc(CCC(=O)O)cc2)cc1` [3-{4-[({4-[(dimethylamino)methyl]phenyl}methyl)amino]phenyl}propanoic acid], over 31.6 µM.

The same assay, now with this note: 25 °C.
`NC(=O)c1cccc(CNc2ccc(CCC(=O)O)cc2)c1` [3-(4-{[(3-carbamoylphenyl)methyl]amino}phenyl)propanoic acid] gave a concentration giving a half-maximal response (EC50) of over 31.6 µM. As to `CS(=O)(=O)Nc1cccc(CNc2ccc(CCC(=O)O)cc2)c1` [3-(4-{[(3-methanesulfonamidophenyl)methyl]amino}phenyl)propanoic acid], the EC50 was over 31.6 µM. On the same count and under the same terms, the figure for `N#Cc1ccc(CNc2ccc(CCC(=O)O)cc2)cc1` [3-(4-{[(4-cyanophenyl)methyl]amino}phenyl)propanoic acid] is over 31.6 µM. On to `O=C(O)CCc1ccc(NCc2ccc(O)cc2)cc1` [3-(4-{[(4-hydroxyphenyl)methyl]amino}phenyl)propanoic acid], for which the EC50 was over 31.6 µM. Regarding `O=C(O)CCc1ccc(NCc2ncc[nH]2)cc1` [3-{4-[(1H-imidazol-2-ylmethyl)amino]phenyl}propanoic acid], the EC50 was over 31.6 µM. Still for that read-out and setting: the figure for `O=C(O)CCc1ccc(NCc2ccc3c(c2)OCO3)cc1` [3-{4-[(2H-1,3-benzodioxol-5-ylmethyl)amino]phenyl}propanoic acid] is over 31.6 µM; for `O=C(O)CCc1ccc(NCc2ccc(C(=O)O)cc2)cc1` [4-({[4-(2-carboxyethyl)phenyl]amino}methyl)benzoic acid] it is over 31.6 µM.
